Measured values as given in article PMC9705858, “Anti-Endotoxin 9-Meric Peptide with Therapeutic Potential for the Treatment of Endotoxemia” (Journal of Microbiology and Biotechnology, 2020).
In brackets after ≈: the same amount, converted by molar mass. Like-named read-outs stand apart in the source and are kept apart here. Non-standard residues stand in square brackets, D forms with d. Residues, ends and D or L forms follow the SMILES beside them.

Tests used:
RAW264.7 cells = experiment: Cytotoxicity, WST-8 cell proliferation assay; type: cell-based, mouse; conditions: 24 h, mean of three experiments
Procedure: (§1) The capacity of peptides in the lysis of erythrocytes was analyzed using sheep red blood cells (RBCs) as described previously. Cytotoxicity was further assessed in mouse macrophage RAW264.7 cells, which were cultured in Dulbecco’s modified Eagle medium (Thermo Fischer Scientific Inc., USA) enriched with fetal bovine serum (10%) and antibiotics (penicillin/streptomycin, 100 IU/ 100 mg/L) at 37°C in a CO2 incubator. The cytotoxic effect of Pro9-3 series peptides against RAW264.7 cells was then determined using WST-8 Cell Proliferation Assay Kit (Biomax Co. Ltd., Korea). The analysis was carried out according to our previously reported method.
Fig. 1 Cytotoxicities of peptides. (A) Dose-dependent hemolytic activities in sheep red blood cell (sRBC) caused by peptides. (B) Dose-response cytotoxicities of the Pro9-3 and its analogs against RAW264.7 cells for 24 h. Melittin was used as a positive control. The values are expressed as the mean ± SEM of three independent experiments: *p < 0.05; **p < 0.01; ***p < 0.001; ns, not significant.

[1] = tested on: MDR Acinetobacter baumannii CCARM 12220; type: cell-based; conditions: MDRAB 12220; 99% growth inhibition; 2 × 10^5 CFU/ml, 37°C, 16 h, A600
Text: (§2) The gram-negative bacterial strains Escherichia coli (KCTC 1682) and Acinetobacter baumannii (KCCM 40203) were purchased from the Korean Collection for Type Cultures (Korea) and the Korean Culture Center of Microorganisms (Korea), respectively. The MDR gram-negative strains Escherichia coli CCARM 1229, Escherichia coli CCARM 1238, Acinetobacter baumannii CCARM 12010, and Acinetobacter baumannii CCARM 12220 were obtained from the Culture Collection of Antibiotic-Resistant Microbes at Seoul Women’s University (South Korea).
(§3) The antibacterial properties of all peptides were determined by measuring the Minimum Inhibitory Concentration (MIC) as described previously. […] Two-fold serial dilutions of respective peptides were inoculated in 96-well plates in Mueller-Hinton medium, followed by the addition of bacterial suspensions (2 × 10^5 CFU/ml) at the log growth phase. The plates were incubated at 37°C for 16 h, and absorbance was read at 600 nm using a SpectraMAX microplate reader (Molecular Devices, USA).

[2] = tested on: MDR Escherichia coli CCARM 1229; type: cell-based; conditions: MDREC 1229; 99% growth inhibition; 2 × 10^5 CFU/ml, 37°C, 16 h, A600
Text: as §2, §3

[3] = tested on: MDR Acinetobacter baumannii CCARM 12010; type: cell-based; conditions: MDRAB 12010; 99% growth inhibition; 2 × 10^5 CFU/ml, 37°C, 16 h, A600
Text: as §2, §3

[4] = tested on: MDR Escherichia coli CCARM 1238; type: cell-based; conditions: MDREC 1238; 99% growth inhibition; 2 × 10^5 CFU/ml, 37°C, 16 h, A600
Text: as §2, §3

[5] = tested on: Acinetobacter baumannii (KCCM 40203); type: cell-based
Text: as §2, §3

[6] = tested on: Escherichia coli (KCTC 1682); type: cell-based
Text: as §2, §3

[7] = Limulus amebocyte lysate (LAL) assay, LPS neutralization; type: biochemical, Escherichia coli; conditions: 50 μM peptide, 2 ng/ml LPS, 15 min at 37°C
Procedure: To check the endotoxin clearance properties of peptides, LAL assay was performed according to the protocol provided in the kit (Pierce LAL Chromogenic Endotoxin Quantitation Kit, Thermo Fisher Scientific). Escalating concentrations of peptides (up to 50 μM) were added with 2 ng/ml LPS (E. coli O111:B4, Sigma-Aldrich, USA) for 15 min at 37°C. To this content, an equal volume of LAL reagent was added and incubated for 15 min and then chromogenic substrate was added. The contents were incubated for another 10 min and 25% acetic acid was used to stop the reaction. The end color (yellow) formed due to […] of substrate was read at 405 nm. LL-37 was used as a control.

sheep red blood cells = experiment: Hemolysis of sheep red blood cells; type: cell-based
Procedure: as §1

[8] = tested on: gram-negative bacterial strains and MDR bacterial strains; experiment: Geometric mean of MICs over all tested bacterial strains and relative selective index; type: cell-based, Escherichia coli, Acinetobacter baumannii; conditions: larger values indicate greater cell selectivity
Procedure: The geometric means (GM) of MICs were assessed to evaluate the antibacterial activities of Pro9-3 series against tested bacterial strains.

[9] = A. baumannii KCCM 40203, 99% growth inhibition, 2 × 10^5 CFU/ml, 37°C, 16 h, A600
[10] = E. coli KCTC 1682, 99% growth inhibition, 2 × 10^5 CFU/ml, 37°C, 16 h, A600

Row | Compound | Survival of RAW264.7 macrophage cells (RAW264.7 cells; 50 μM peptide) | Minimal inhibitory concentration (MIC) [1] | Minimal inhibitory concentration (MIC) [2] | Minimal inhibitory concentration (MIC) [3] | Minimal inhibitory concentration (MIC) [4] | Minimal inhibitory concentration (MIC) [5, 9] | Minimal inhibitory concentration (MIC) [6, 10] | LPS neutralization (LAL assay) [7] | Survival of RAW264.7 macrophage cells (RAW264.7 cells; 100 μM peptide) | HC10 (peptide concentration which induces 10% hemolysis) (sheep red blood cells) | Minimal inhibitory concentration (MIC) ([5]; KCCM 40203, 16 h) | Minimal inhibitory concentration (MIC) ([6]; KCTC 1682, 16 h) | Hemolytic activity in sRBC (in words) (sheep red blood cells; escalated dose of peptides, Fig. 1A) | Relative selective index (HC10/GM of the MIC) [8]
1 | CC[C@@H](C)[C@@H](NC(=O)[C@@H](C)NC(=O)[C@@H](CC(C)C)NC(=O)[C@@H](Cc1c[nH]c2ccccc12)NC(=O)[C@@H](CC(C)C)NC(=O)[C@H](N)CCCCN)C(=O)N[C@H](Cc1c[nH]c2ccccc12)C(=O)N[C@H](CCCCN)C(=O)N[C@H](CCCCN)C(N)=O [Pro9-3D-K] (H-[dK][dL][dW][dL][dA][dI][dW][dK][dK]-NH2) | 71% | 32 µM (≈ 37.9 µg/mL) | 32 µM (≈ 37.9 µg/mL) | 32 µM (≈ 37.9 µg/mL) | 16 µM (≈ 19 µg/mL) | 32 µM (≈ 37.9 µg/mL) | 16 µM (≈ 19 µg/mL) |  |  |  |  |  |  | 
2 | LL-37 |  |  |  |  |  |  |  | 91% |  |  |  |  |  | 
3 | CC[C@H](C)[C@H](NC(=O)[C@H](C)NC(=O)[C@H](CC(C)C)NC(=O)[C@H](Cc1c[nH]c2ccccc12)NC(=O)[C@H](CC(C)C)NC(=O)[C@@H](N)CCCCN)C(=O)N[C@@H](Cc1c[nH]c2ccccc12)C(=O)N[C@@H](CCCCN)C(=O)N[C@@H](CCCCN)C(N)=O [Pro9-3-K] (H-KLWLAIWKK-NH2) |  | 64 µM (≈ 75.8 µg/mL) | 64 µM (≈ 75.8 µg/mL) | 64 µM (≈ 75.8 µg/mL) | 64 µM (≈ 75.8 µg/mL) | 64 µM (≈ 75.8 µg/mL) | 64 µM (≈ 75.8 µg/mL) |  | 100% |  |  |  |  | 
4 | CC[C@H](C)[C@H](NC(=O)[C@H](C)NC(=O)[C@H](CC(C)C)NC(=O)[C@H](Cc1c[nH]c2ccccc12)NC(=O)[C@H](CC(C)C)NC(=O)[C@@H](N)CCCNC(=N)N)C(=O)N[C@@H](Cc1c[nH]c2ccccc12)C(=O)N[C@@H](CCCNC(=N)N)C(=O)N[C@@H](CCCNC(=N)N)C(N)=O [Pro9-3] (H-RLWLAIWRR-NH2) |  | 16 µM (≈ 20.3 µg/mL) | 16 µM (≈ 20.3 µg/mL) | 16 µM (≈ 20.3 µg/mL) | 32 µM (≈ 40.6 µg/mL) |  |  |  | 100% | 200 µM | 16 µM (≈ 20.3 µg/mL) | 16 µM (≈ 20.3 µg/mL) |  | 
5 | CC[C@H](C)[C@H](NC(=O)CN)C(=O)NCC(=O)N[C@@H](C)C(=O)N[C@H](C(=O)N[C@@H](CC(C)C)C(=O)N[C@@H](CCCCN)C(=O)N[C@H](C(=O)N[C@@H](CC(C)C)C(=O)N[C@H](C(=O)N[C@H](C(=O)NCC(=O)N[C@@H](CC(C)C)C(=O)N1CCC[C@H]1C(=O)N[C@@H](C)C(=O)N[C@@H](CC(C)C)C(=O)N[C@H](C(=O)N[C@@H](CO)C(=O)N[C@@H](Cc1c[nH]c2ccccc12)C(=O)N[C@H](C(=O)N[C@@H](CCCCN)C(=O)N[C@@H](CCCNC(=N)N)C(=O)N[C@@H](CCCCN)C(=O)N[C@@H](CCCNC(=N)N)C(=O)N[C@@H](CCC(N)=O)C(=O)N[C@@H](CCC(N)=O)C(N)=O)[C@@H](C)CC)[C@@H](C)CC)[C@@H](C)O)[C@@H](C)O)C(C)C)C(C)C [Melittin, reference compound] |  | 8 µM (≈ 22.8 µg/mL) | 16 µM (≈ 45.5 µg/mL) | 8 µM (≈ 22.8 µg/mL) | 32 µM (≈ 91.1 µg/mL) | 8 µM (≈ 22.8 µg/mL) |  |  |  |  |  |  | severe cytotoxicity even at low concentration | 0.06
6 | CC[C@@H](C)[C@@H](NC(=O)[C@@H](C)NC(=O)[C@@H](CC(C)C)NC(=O)[C@@H](Cc1c[nH]c2ccccc12)NC(=O)[C@@H](CC(C)C)NC(=O)[C@H](N)CCCNC(=N)N)C(=O)N[C@H](Cc1c[nH]c2ccccc12)C(=O)N[C@H](CCCNC(=N)N)C(=O)N[C@H](CCCNC(=N)N)C(N)=O [Pro9-3D] (H-[dR][dL][dW][dL][dA][dI][dW][dR][dR]-NH2) | 40% | 8 µM (≈ 10.1 µg/mL) | 8 µM (≈ 10.1 µg/mL) | 8 µM (≈ 10.1 µg/mL) | 4 µM (≈ 5.07 µg/mL) |  | 8 µM (≈ 10.1 µg/mL) |  |  | 200 µM | 4 µM (≈ 5.07 µg/mL) |  |  | 
